# Assay results published in ChEMBL document CHEMBL1201862, “PubChem BioAssay data set” (2004).
# Calls of active or inactive are those of the source.
# How the values were obtained:
# [1] = biological target: Luciferin 4-monooxygenase (Photinus pyralis, UniProt P08659); test: inhibition of purified Photinus pyralis luciferase – biochemical, luminescence, dose response (AID 1891)
# [2] = Luminescence Cell-Based Dose Confirmation HTS to Identify Inhibitors of Platelet Dense Granule Release. [Related pubchem assays: 1663 (Primary HTS), 1678 (Summary of Project)]; type: functional
# [3] = Luminescence Cell-Based Dose Retest to Confirm Inhibitors of Cancer Stem Cells. [Related pubchem assays (depositor defined):AID2717, AID2721]; type: functional; conditions: Homo sapiens
# Cytochrome P450 3A4 = Cytochrome P450 3A4 (Homo sapiens, UniProt P08684);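 note: CYP3A4 tested as one member of a cytochrome P450 panel screen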
# Cytochrome P450 3A4, sequence (P08684 whole entry): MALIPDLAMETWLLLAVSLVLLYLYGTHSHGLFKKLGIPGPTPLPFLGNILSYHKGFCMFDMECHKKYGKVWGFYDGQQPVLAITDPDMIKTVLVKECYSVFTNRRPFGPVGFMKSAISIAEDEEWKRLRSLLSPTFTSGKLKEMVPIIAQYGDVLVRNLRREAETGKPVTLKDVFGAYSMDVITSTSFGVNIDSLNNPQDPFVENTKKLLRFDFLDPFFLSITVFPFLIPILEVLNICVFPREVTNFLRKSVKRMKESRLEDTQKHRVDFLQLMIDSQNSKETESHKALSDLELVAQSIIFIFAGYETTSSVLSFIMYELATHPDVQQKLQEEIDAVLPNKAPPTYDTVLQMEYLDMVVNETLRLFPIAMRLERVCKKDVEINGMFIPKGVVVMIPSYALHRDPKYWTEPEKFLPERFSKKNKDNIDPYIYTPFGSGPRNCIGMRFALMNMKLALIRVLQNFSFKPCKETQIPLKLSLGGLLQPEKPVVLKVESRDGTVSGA
# Cytochrome P450 1A2 = biological target: T1, Cytochrome P450 1A2 (Homo sapiens, UniProt P05177);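 note: PubChem cytochrome P450 panel assay, CYP1A2 panel member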
# T1 sequence (P05177 whole entry): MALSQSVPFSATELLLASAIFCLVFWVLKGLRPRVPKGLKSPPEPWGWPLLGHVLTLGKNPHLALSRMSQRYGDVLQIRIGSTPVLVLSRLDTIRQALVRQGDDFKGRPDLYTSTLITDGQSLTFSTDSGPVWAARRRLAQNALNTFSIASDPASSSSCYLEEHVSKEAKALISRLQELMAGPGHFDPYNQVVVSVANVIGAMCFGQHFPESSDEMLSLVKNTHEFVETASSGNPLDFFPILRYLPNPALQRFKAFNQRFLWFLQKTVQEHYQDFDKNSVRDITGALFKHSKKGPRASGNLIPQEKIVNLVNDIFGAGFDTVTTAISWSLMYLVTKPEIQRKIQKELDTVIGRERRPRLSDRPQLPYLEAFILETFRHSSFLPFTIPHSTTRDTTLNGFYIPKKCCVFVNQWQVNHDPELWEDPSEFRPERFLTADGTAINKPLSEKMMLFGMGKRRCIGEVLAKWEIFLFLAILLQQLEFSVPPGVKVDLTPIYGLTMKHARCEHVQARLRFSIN
# [4] = biological target: T2, Heat shock factor protein 1 (Mus musculus, UniProt P38532); test: decrease of HSF1-responsive luciferase luminescence – cell-based, NIH3T3, dose retest, confirmation (AID 2382); type: functional;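 note: NIH3T3 fibroblasts with HSF1-driven luciferase reporter stressed by proteasome inhibitor MG132; luminescence from HSF1-driven luciferase expression after 8 hours of MG132 stress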
# T2 sequence (P38532 whole entry): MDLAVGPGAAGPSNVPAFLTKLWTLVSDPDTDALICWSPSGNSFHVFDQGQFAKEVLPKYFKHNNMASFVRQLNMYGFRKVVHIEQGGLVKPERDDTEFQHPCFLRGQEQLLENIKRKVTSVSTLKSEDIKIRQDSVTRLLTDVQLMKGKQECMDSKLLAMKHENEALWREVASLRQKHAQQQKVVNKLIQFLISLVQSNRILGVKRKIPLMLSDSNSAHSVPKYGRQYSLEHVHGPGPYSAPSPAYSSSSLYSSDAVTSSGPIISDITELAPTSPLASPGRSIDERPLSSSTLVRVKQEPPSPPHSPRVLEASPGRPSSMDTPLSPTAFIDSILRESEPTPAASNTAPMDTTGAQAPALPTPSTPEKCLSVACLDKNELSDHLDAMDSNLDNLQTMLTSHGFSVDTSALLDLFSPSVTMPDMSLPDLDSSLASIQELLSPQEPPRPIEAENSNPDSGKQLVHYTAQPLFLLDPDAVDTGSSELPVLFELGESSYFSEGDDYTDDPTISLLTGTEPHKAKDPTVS
# H4 = test: Luminescence Cell-Based Dose Response HTS to Identify Activators of 5'UTR Stem-Loop Driven Prion Protein mRNA Translation in H4 Neuroglioblastoma Cells. [Related pubchem assays: 1829 (Project Summary), 1814 (Primary HTS)]; type: functional; conditions: Homo sapiens
# [5] = Luminescence Cell-Based Dose Response HTS to Identify Activators of Luciferase Translation or Activity in H4 […] Cells. [Related pubchem assays: 1829 (Project Summary), 1814 (Primary HTS)]; type: functional
# [6] = viability of PTEN-deleted HCT116 cells – cell-based, HCT116 PTEN knockout, dose response (AID 1047); type: functional;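 note: HCT116 colon tumor cells with PTEN knocked out; cells exposed to compound for 60 hours before readout; potency for loss of cell viability measured by luminescence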
# [7] = viability of HCT116 lacking mutant beta-catenin – cell-based, human colon tumor, dose response (AID 1045); type: functional;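 note: HCT116 colon tumor cells with beta catenin knocked out; cells exposed to compound for 60 hours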
# Cytochrome P450 2C19 = Cytochrome P450 2C19 (Homo sapiens, UniProt P33261); test: Cytochrome panel assay with activity outcomes. Panel member name: p450-cyp2c19 Compounds with AC50 equal or less than 10 uM are considered active; type: functional; conditions: read-out: AC50
# Cytochrome P450 2C19, sequence (P33261 whole entry): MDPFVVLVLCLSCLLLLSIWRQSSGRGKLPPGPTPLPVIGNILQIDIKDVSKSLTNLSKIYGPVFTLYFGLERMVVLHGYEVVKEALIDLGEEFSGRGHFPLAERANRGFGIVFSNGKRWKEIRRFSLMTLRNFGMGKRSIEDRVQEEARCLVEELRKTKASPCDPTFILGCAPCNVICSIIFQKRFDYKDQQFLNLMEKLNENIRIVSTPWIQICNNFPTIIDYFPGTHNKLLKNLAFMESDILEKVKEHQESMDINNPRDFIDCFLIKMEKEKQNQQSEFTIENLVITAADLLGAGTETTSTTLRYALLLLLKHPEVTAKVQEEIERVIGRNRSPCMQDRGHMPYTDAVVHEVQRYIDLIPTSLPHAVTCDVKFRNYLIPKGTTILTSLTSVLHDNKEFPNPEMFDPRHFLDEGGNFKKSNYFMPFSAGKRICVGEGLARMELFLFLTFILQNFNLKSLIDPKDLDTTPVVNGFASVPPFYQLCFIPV
# [8] = NIH3T3 cell viability loss – ATP luminescence, mouse fibroblasts, counter-screen, dose response (AID 2010); type: functional, cell-based;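 note: cells exposed to compound for about 90 hours before reading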
# INS1 = test: INS-1E survival protection against cytokine death – cell-based, luminescence, retest, dose response (AID 449756); type: functional; conditions: Rattus norvegicus;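 note: cell death triggered by IL-1 beta plus TNF-alpha plus IFN-gamma mixture; protective hits raise ATP signal compared with cytokine alone wells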
# [9] = Trypanosoma cruzi growth suppression in host cells – NIH3T3 host cells, beta-gal luminescence, confirmation (AID 2044); type: functional, cell-based;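 note: intracellular parasites grown in NIH/3T3 mouse fibroblasts as host cells; luminescent beta-galactosidase reporter signal from transgenic T. cruzi replicating inside host cells; inhibitors lower the luminescence signal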
# Luciferin 4-monooxygenase, sequence (P08659 whole entry): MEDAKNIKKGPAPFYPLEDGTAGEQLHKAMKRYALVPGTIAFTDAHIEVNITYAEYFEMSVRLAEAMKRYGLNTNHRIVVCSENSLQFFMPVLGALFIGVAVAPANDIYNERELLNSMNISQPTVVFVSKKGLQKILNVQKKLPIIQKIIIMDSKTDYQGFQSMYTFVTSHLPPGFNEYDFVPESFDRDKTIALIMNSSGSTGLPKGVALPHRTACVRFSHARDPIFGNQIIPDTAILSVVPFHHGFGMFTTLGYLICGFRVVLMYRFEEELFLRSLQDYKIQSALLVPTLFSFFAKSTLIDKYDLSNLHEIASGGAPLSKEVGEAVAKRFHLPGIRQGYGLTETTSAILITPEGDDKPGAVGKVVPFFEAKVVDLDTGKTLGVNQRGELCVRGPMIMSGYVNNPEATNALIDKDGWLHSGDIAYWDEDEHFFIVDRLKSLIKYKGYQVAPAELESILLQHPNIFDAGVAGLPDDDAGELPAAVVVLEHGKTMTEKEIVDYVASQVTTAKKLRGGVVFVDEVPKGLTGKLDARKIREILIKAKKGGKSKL
compound,measurement,setting,value
COc1ccc(/C=N/Nc2ncccc2[N+](=O)[O-])c(OC)c1,EC50,[1],2.42 µM (active)
same,EC50,[2],2.57 µM (active)
O=S(=O)(N/N=C1/CC(c2ccccc2)Oc2ccccc21)c1ccc(Br)cc1 (centres undefined),AC50,[3],2.79 µM (active)
O=C(c1ccccc1-c1nc(-c2ccccc2)no1)N1CCOCC1,AC50,Cytochrome P450 3A4,28.2 µM (inconclusive)
same,AC50,Cytochrome P450 1A2,39.8 µM (inconclusive)
CCCCn1c(=O)c(C(=O)NCc2ccc(Cl)cc2)c(O)c2ccccc21,AC50,[3],5.25 µM (active)
Cc1nc(SCC(=O)NCC2CCCO2)nc(O)c1C (centres undefined),EC50,[4],> 195 µM (not active)
[O-]/[N+](=C/c1ccc(F)cc1)c1ccc(Cl)cc1,EC50,[1],> 112 µM (not active)
same,EC50,[2],> 112 µM (not active)
Cc1c(C=C2C(=O)N(C)C(=O)N(C)C2=O)c(=O)n(-c2ccccc2)n1C,EC50,[4],> 195 µM (not active)
CCCn1c(SCC(=O)N2CCCC(C)C2)nnc1-c1ccccn1 (centres undefined),EC50,[1],> 112 µM (not active)
same,EC50,[2],> 112 µM (not active)
CCOc1ccc(C(=O)CSc2nnc3ccccn23)cc1,EC50,H4,> 120 µM (not active)
same,EC50,[5],35.7 µM (active)
Cc1ccc2[nH]c(/C(C#N)=C\c3ccc(Oc4ccc([N+](=O)[O-])cn4)cc3)nc2c1,EC50,[6],76.4 µM (active)
same,EC50,[7],46.9 µM (active)
Cc1ccc(-c2nc3cccnc3o2)cc1NC(=O)COc1ccc(Cl)cc1C,EC50,[6],5.15 µM (active)
same,EC50,[7],14.6 µM (active)
COc1cccc(Nc2ncc3nc(CCc4ccccc4)c(=O)n(CCC#N)c3n2)c1,AC50,Cytochrome P450 3A4,2 µM (inconclusive)
CN(C)c1ccc(/C=N/NC(=O)C2COc3ccccc3O2)o1 (centres undefined),EC50,[4],> 195 µM (not active)
Cc1ccc2nc(-c3ccc(NS(=O)(=O)c4c(C)n(C)c(=O)n(C)c4=O)cc3)sc2c1,EC50,[5],2.06 µM (active)
CCOC(=O)N1CCC(NC(=O)c2cc(S(=O)(=O)N3CCCC3)cn2C)CC1,AC50,Cytochrome P450 3A4,14.1 µM (inconclusive)
same,AC50,Cytochrome P450 2C19,8.91 µM (inconclusive)
Cc1ccc(C)c(Nc2nc(N)c3ccccc3n2)c1,EC50,[1],12.2 µM (active)
same,EC50,[2],11 µM (active)
Cc1ccc(Oc2nc(CN3CCOCC3)nc3sc4c(c23)CCC(C)C4)cc1C (centres undefined),AC50,[3],6.74 µM (active)
same,EC50,[4],> 195 µM (not active)
COc1cc(CNc2ccc3[nH]c(O)nc3c2)ccc1OCC(=O)NC(C)(C)C,EC50,[2],12.4 µM (active)
CCCCC(CC)CN1C(=O)/C(=C/c2c[nH]nc2-c2ccccc2)SC1=S (centres undefined),EC50,[6],21.3 µM (active)
same,EC50,[7],21.1 µM (active)
Fc1cnc(N2CCc3ccccc32)nc1N1CCc2ccccc21,EC50,[6],30 µM (active)
same,EC50,[7],25.5 µM (active)
O=C(COc1ccc(Cl)cc1Cl)NN=C1c2ccccc2-c2ccccc21,EC50,[6],7.45 µM (active)
same,EC50,[7],6.99 µM (active)
CC(C)(C)C(=O)OCc1nc(-c2ccc3c(c2)OCCO3)cs1,EC50,[4],> 195 µM (not active)
CC(C)NC(=O)N1CCCC2(CCN(C(=O)c3ccco3)CC2)C1,AC50,Cytochrome P450 3A4,25.1 µM (inconclusive)
O=C(CC1Nc2ccccc2NC1=O)Nc1ccccc1NC(=O)CC1Nc2ccccc2NC1=O (centres undefined),EC50,[4],> 195 µM (not active)
Cn1c(SCC(=O)N=Nc2c(O)[nH]c3ccccc23)nc2ccccc21,EC50,[1],> 112 µM (not active)
same,EC50,[2],> 112 µM (not active)
Cc1ccc(C(=O)Nc2ccc(Br)c(C(F)(F)F)c2)cc1,EC50,[6],19.7 µM (active)
same,EC50,[7],23.8 µM (active)
COc1ccc(-c2nc(NC(=O)c3cc(C(C)(C)C)nn3C)sc2C)cc1,EC50,[8],8.58 µM (active)
same,AC50,[3],7.12 µM (active)
same,AC50,INS1,10.2 µM (active)
same,EC50,[9],1.76 µM (active)
CCOc1ccc(NC(=O)Nc2cc(C)ccc2F)cc1,EC50,[1],1.02 µM (active)
same,EC50,[2],1.81 µM (active)
Cc1sc2nc(CN3CCC(C)CC3)nc(Cl)c2c1C,EC50,[6],18.5 µM (active)
same,EC50,[7],14.5 µM (active)
Cc1nnc2sc(-c3ccc(-c4ccc(Cl)c(C(F)(F)F)c4)o3)nn12,EC50,[1],> 112 µM (not active)
same,EC50,[2],> 112 µM (not active)
CC1CCCN(C(=O)C2(NC(=O)Nc3cccc(F)c3)CCCCC2)C1 (centres undefined),EC50,[4],> 195 µM (not active)
CCCn1c(C)cc(=O)c2cc(NC(=O)c3cnccn3)ccc21,EC50,[6],33.7 µM (active)
same,EC50,[7],19.9 µM (active)
COc1cccc(-c2nnc(-c3ccco3)o2)c1,EC50,[1],> 112 µM (not active)
same,EC50,[2],40.9 µM (active)
O=C(/C=C/c1ccc(Br)o1)NCCCN1CCOCC1,EC50,[4],> 195 µM (not active)
CCOc1ccc(C2=NN=C(c3ccc(N4CCOCC4)cc3)c3ccccc3N2)cc1,EC50,H4,> 120 µM (not active)
same,EC50,[5],30.1 µM (active)
O=C(CSc1nc(-c2ccccc2)cc(C(F)(F)F)n1)c1cccc([N+](=O)[O-])c1,AC50,[3],5.41 µM (active)
COCCNc1ncnc2ccc(-c3ccccc3CN(C)C)cc12,AC50,Cytochrome P450 3A4,31.6 µM (inconclusive)
same,AC50,Cytochrome P450 1A2,25.1 µM (inconclusive)
NC(=O)C1CCN(CC(=O)Nc2nc(-c3ccccc3)cs2)CC1,EC50,[4],> 195 µM (not active)
COc1ccc(NC(=O)CN(C)CC(=O)Nc2ccc3c(c2)CCC3)cc1,EC50,[4],> 195 µM (not active)
CN(C)c1ccc(CNC(=O)c2cc(S(=O)(=O)N3CCOCC3)cn2C)cc1,EC50,[1],> 112 µM (not active)
same,EC50,[2],> 112 µM (not active)
COc1ccccc1N1CCN(CCN2C(=O)c3ccccc3C(C)(C)C2=O)CC1,AC50,Cytochrome P450 3A4,15.8 µM (inconclusive)
same,AC50,Cytochrome P450 1A2,39.8 µM (inconclusive)
CCN(CC)C(=O)CN1C(=O)/C(=C/c2ccccc2)SC1=S,EC50,[4],> 195 µM (not active)
O=C(Oc1ccccc1Cl)c1ccc(-n2cncn2)nc1,EC50,[4],> 195 µM (not active)
O=c1c2ccccc2nc(COc2ccccc2)n1/N=C/c1c[nH]nc1-c1ccccc1,EC50,[6],19.6 µM (active)
same,EC50,[7],24.5 µM (active)
Cc1occc1-c1nnc(SCC(=O)Nc2ccccc2)n1C,EC50,[4],> 195 µM (not active)
Nn1c(SCC(=O)NC2CCCC2)nnc1-c1ccccc1F,EC50,[4],> 195 µM (not active)
COc1cc([C@@H]2c3cc4c(cc3[C@@H](O)[C@H]3COC(=O)[C@H]23)OCO4)cc(OC)c1O[Si](C)(C)C(C)(C)C,AC50,[3],3.64 µM (active)
COc1ccc(-c2nc3scc(-c4ccc(OC)c(OC)c4)c3c(=O)o2)cc1,EC50,[6],24.7 µM (active)
same,EC50,[7],16.4 µM (active)
O=C(O)CC(NC(=O)C(c1ccccc1)c1ccccc1)c1ccco1 (centres undefined),EC50,[1],> 112 µM (not active)
same,EC50,[2],> 112 µM (not active)
CC(C)(C)NC(=O)Cn1nnc(-c2ccc(OCc3c(F)cccc3Cl)cc2)n1,AC50,[3],1.33 µM (active)
O=C1NC(=O)N(CCC2=CCCCC2)C(=O)/C1=C\NNc1ccccc1,AC50,[3],2.46 µM (active)
CCc1ccc(/C=N/NC(=O)c2nnn(-c3nonc3N)c2CN2CCOCC2)cc1,EC50,[1],> 112 µM (not active)
same,EC50,[2],52.9 µM (active)
COc1ccc(NCc2nnc(SCC(=O)Nc3cc(C(F)(F)F)ccc3Cl)o2)cc1,EC50,[4],> 195 µM (not active)
COc1ccccc1N1CCN(CCn2c(=O)[nH]c3c([nH]c4ccccc43)c2=O)CC1,AC50,Cytochrome P450 3A4,15.8 µM (inconclusive)
same,AC50,Cytochrome P450 1A2,39.8 µM (inconclusive)
Fc1ccc(-c2nc3c(-c4ccc(Cl)cc4)cnn3cc2CCN2CCOCC2)cc1,EC50,[4],> 195 µM (not active)
COc1ccc(CCn2c(=N)c(C(=O)NCC3CCCO3)cc3c(=O)n4ccccc4nc32)cc1OC (centres undefined),EC50,[1],> 112 µM (not active)
same,EC50,[2],> 112 µM (not active)
